Reference: patent US20230278987A1, “Antimicrobial Compounds and Methods” (Curza Global, LLC, priority 2019, published 2023)
≈ marks a conversion by molar mass, not a printed value. Structures can show the parent of a compound that is named as a salt. Where two headings read alike, the source gives them in different places.

Columns and labels:
[1] = target: Rabbit Reticulocyte Lysate (eukaryotic protein synthesis); test: Rabbit Reticulocyte Lysate: inhibition of eukaryotic protein synthesis (luciferase); assay type: biochemical; conditions: 30° C. for 90 minutes, read-out: retic. IC50
Procedure: Inhibition of eukaryotic protein synthesis was determined using the Rabbit Reticulocyte Lysate System, Nuclease-Treated from Promega (catalog #L-4960) with slight modifications to the manufacturer’s protocol. Compounds were serial diluted in 0.5 mL microcentrifuge tubes by mixing and transferring 50 µL from the highest concentration to 50 µL of water, mixing and transferring 50 µL of this 2-fold dilution to 50 µL of water. This mixing and transferring was repeated so that there are a total of 8 tubes with serial dilutions of compound at 10× the desired screening concentration that are ultimately diluted to 1× by the addition of rabbit reticulocyte luciferase synthesis mixture. Serial dilutions of compounds were added (2.5 µL) to wells in a black round bottom 96-well plate. Water (2.5 µL) was used as a “no inhibitor” control in 4 wells/plate. No RNA control reaction mixture (2 µL; see below) was used as a control in 4 wells/plate for background luminescence. Rabbit reticulocyte luciferase synthesis mixture (22.5 µL; see below) was added to wells with compounds or water mixture and incubated at 30° C. for 90 minutes. Luciferase assay reagent (25 µL) was added with luminescence measured using a BioTek Synergy HTX plate reader. % Inhibition was determined relative to no inhibitor controls.
Rabbit reticulocyte luciferase synthesis mixture: • 1,000 µL rabbit reticulocyte lysate • 5.7 µL Luciferase Control RNA (1 µg/ µL) • 26 µL complete amino acid mixture • 395 µL water
No RNA Control • 70 µL rabbit reticulocyte lysate • 2 µL complete amino acid mixture • 28 µL water

[2] = system: E.coli S30 extract (bacterial protein synthesis); test: E.coli S30 extract: inhibition of bacterial protein synthesis (luciferase); assay type: biochemical; conditions: 37° C. for 1 hour
Procedure: E.coli S30 extract: Inhibition of bacterial protein synthesis was determined using the E.coli S30 Extract System for Circular DNA (Promega catalog #L-2010) and Luciferase Assay Reagent (Promega catalog #E1500) with slight modifications to a published protocol. Fyfe, C., Sutcliffe, J.A. and Grossman, T.H. (2012) “Development and characterization of a Pseudomonas aeruginosa in vitro coupled transcription-translation assay system for evaluation of translation inhibitors” J. Microbiol. Methods 90(3), 256-261.
Compounds were serial diluted in 0.5 mL microcentrifuge tubes by mixing and transferring 50 µL from the highest concentration to 50 µL of water, mixing and transferring 50 µL of this 2-fold dilution to 50 µL of water. This mixing and transferring was repeated so that there are a total of 8 tubes with serial dilutions of compound at 10× the desired screening concentration that are ultimately diluted to 1× by the addition of S30 luciferase synthesis mixture. Serial dilutions of compounds were added (2 µL) to wells in a black round bottom 96-well plate. Water (2 µL) was used as a “no inhibitor” control in 4 wells/plate. No DNA control reaction mixture (20 µL; see below) was used as a control in 4 wells/plate for background luminescence. S30 luciferase synthesis mixture (18 µL; see below) was added to wells with compounds or water mixture and incubated at 37° C. for 1 hour. Reactions were stopped by transferring to 4° C. refrigerator for 5 minutes then 25 µL of luciferase activity mix was added. Luminescence was measured using a BioTek Synergy HTX plate reader. % Inhibition was determined relative to no inhibitor controls.
S30 luciferase synthesis mixture: • 445 µL S30 extract, circular • 712 µL S30 Premix without amino acids • 4.45 µL pBESTluc™ DNA (1 µg/ µL) • 78 µL complete amino acid mixture • 267 µL water
No DNA control: • 20 µL S30 extract, circular • 32 µL S30 Premix without amino acids • 7 µL complete amino acid mixture • 21 µL water

P.aeruginosa (Pa) = test: Broth microdilution MIC against P.aeruginosa (Pa); assay type: cell-based; conditions: Pseudomonas aeruginosa
Procedure: (§1) A certified BSL-2 laboratory was used for testing. Compounds were evaluated using the broth microdilution minimum inhibitory concentration (MIC) and minimum bactericidal concentration (MBC) assays defined by Clinical and Laboratory Standards Institute (CLSI) in the M26-A guideline against S.aureus (Sa), E.coli (Ec), K.pneumoniae (Kp), A.baumannii (Ab), E.faecalis (Ef) and P.aeruginosa (Pa).
(§2) MICs were determined using the Clinical Laboratory and Standards Institute (CLSI) Broth Microdilution Method with slight modification. Clinical and Laboratory Standards Institute (2012). “Methods for dilution antimicrobial susceptibility tests for bacteria that grow aerobically; approved standard, 9th ed. M07-A9. Clinical and Laboratory Standards Institute, Wayne, PA.” Serial two-fold dilutions of compounds are prepared in sterile clear roundbottom 96-well plates.
(§3) To prepare microdilution trays, two-fold dilutions of antimicrobial agent are prepared in growth medium: Cation-Adjusted Mueller-Hinton Broth (CAMHB), or CAMHB supplemented with sodium bicarbonate (6.25 or 25 mM final concentration prepared from a 1.0 M stock solution) or CAMHB supplemented with heat inactivated human serum (Fisher Cat. # BP2657100) 0-50% by adding 200 µL of the highest concentration to be tested (64 µg/mL, for example) in row A, mixing and transferring 100 µL from row A to 100 µL growth medium in row B, then repeating the mixing and transferring through row H of the 96-well plate, discarding the excess 100 µL remaining. This slight modification to the CLSI protocol enables evaluation of MICs for 3 compounds per plate in triplicate, albeit with only 8 compound dilutions (CLSI protocol enables 2 compounds in triplicate with 10 dilutions). Bacterial suspensions are added to a final concentration of 5 × 10^4 CFU/well by adding 5 µL of a 1:10 dilution of a 0.5 McFarland suspension (1 × 10^8 CFU/mL) for each bacterium evaluated. Bacterial suspensions were prepared using the growth method described by CLSI. Well-isolated colonies (3-5 from an agar plate) were selected using a sterile loop and used to inoculate a tube containing 4 mL of CAMHB. The cultures are incubated at 35 ± 2° C. until it achieves or exceeds the turbidity of the 0.5 McFarland standard, determined by measuring A600nm (usually two to six hours). When growth exceeds a 0.5 McFarland standard, the turbidity is adjusted with broth to be equivalent to a 0.5 McFarland standard.

A.baumannii (Ab) = test: Broth microdilution MIC against A.baumannii (Ab); assay type: cell-based; conditions: Acinetobacter baumannii
Procedure: as §1, §2, §3

E.faecalis (Ef) = test: Broth microdilution MIC against E.faecalis (Ef); assay type: cell-based; conditions: Enterococcus faecalis
Procedure: as §1, §2, §3

S.aureus (Sa) = test: Broth microdilution MIC against S.aureus (Sa); assay type: cell-based; conditions: Staphylococcus aureus
Procedure: as §1, §2, §3

E.coli (Ec) = test: Broth microdilution MIC against E.coli (Ec); assay type: cell-based; conditions: Escherichia coli
Procedure: as §1, §2, §3

[3] = CAMHB supplemented with sodium bicarbonate 25 mM, read-out: Pa +bicarb 25 (MIC)
[4] = read-out: Ab +bicarb 6.25 (MIC)
[5] = read-out: Ef +bicarb 6.25 (MIC)
[6] = read-out: Sa + bicarb 6.25 (MIC)
[7] = read-out: E. coli + bicarb 6.25 (MIC)
[8] = read-out: Pa +bicarb 6.25 (MIC)

| SMILES | IC50 [1] | IC50 [2] | MIC (A.baumannii (Ab); [4]) | MIC (E.faecalis (Ef); [5]) | MIC (S.aureus (Sa); [6]) | MIC (E.coli (Ec); [7]) | MIC (P.aeruginosa (Pa); [8]) | further results |
| --- | --- | --- | --- | --- | --- | --- | --- | --- |
| CC(C)(N)C(=O)N1CCN(C(=O)Nc2ccn(-c3ccc4c(c3)CCC(N3C[C@@H]5[C@@H](CN)[C@@H]5C3)C4)c(=O)n2)CC1 (some centres unmarked) [Compound 3] | ≥ 1000 nM | < 500 nM | – | – | – | – | – | – |
| CC(C)(N)C(=O)N1CCN(C(=O)Nc2ccn(-c3ccc4c(c3)CCC(N3CC[C@@H](CN)C3)C4)c(=O)n2)CC1 (some centres unmarked) [Compound 4] | ≥ 1000 nM | < 500 nM | – | – | – | – | – | MIC (P.aeruginosa (Pa); [3]): 8 to 32 µg/mL (≈ 14.9 to 59.6 µM) |
| CC(C)(N)C(=O)N1CCN(C(=O)Nc2ccn(-c3ccc4c(c3)CCC(N3CC[C@H](CN)C3)C4)c(=O)n2)CC1 (some centres unmarked) [Compound 5] | ≥ 1000 nM | < 500 nM | – | – | – | – | – | – |
| CC(C)(N)C(=O)N1CCN(C(=O)Nc2ccn(-c3ccc4c(c3)CCC(N[C@H]3CC[C@@H](N)CC3)C4)c(=O)n2)CC1 (some centres unmarked) [Compound 6] | ≥ 1000 nM | < 500 nM | – | – | – | – | – | MIC (A.baumannii (Ab); CAMHB supplemented with sodium bicarbonate 25 mM, read-out: Ab +bicarb 25 (MIC)): > 32 µg/mL; MIC (E.faecalis (Ef); CAMHB supplemented with sodium bicarbonate 25 mM, read-out: Ef +bicarb 25 (MIC)): < 8 µg/mL; MIC (S.aureus (Sa); CAMHB supplemented with sodium bicarbonate 25 mM, read-out: Sa + bicarb 25 (MIC)): < 8 µg/mL; MIC (E.coli (Ec); CAMHB supplemented with sodium bicarbonate 25 mM, read-out: E.coli + bicarb 25 (MIC)): < 8 µg/mL; MIC (P.aeruginosa (Pa); [3]): > 32 µg/mL |
| C[C@](N)(CO)C(=O)N1CCN(C(=O)Nc2ccn(-c3ccc4c(c3)CCC(N[C@H]3CC[C@H](N)C3)C4)c(=O)n2)CC1 (some centres unmarked) [Compound 24, Hydrochloride Salt] | – | – | > 32 µg/mL | > 32 µg/mL | > 32 µg/mL | < 8 µg/mL | > 32 µg/mL | – |
| CC(C)(N)C(=O)N1CCN(C(=O)Nc2ccn(-c3ccc4c(c3)CCC(N[C@H]3C[C@H](CN)C3)C4)c(=O)n2)CC1 (some centres unmarked) [Compound 41, Hydrochloride Salt] | – | – | > 32 µg/mL | > 32 µg/mL | 8 to 32 µg/mL | < 8 µg/mL | > 32 µg/mL | – |
| CC(C)(N)C(=O)N1CCN(C(=O)Nc2ccn(-c3ccc4c(c3)CCC(N[C@H]3C[C@@H](CN)C3)C4)c(=O)n2)CC1 (some centres unmarked) [Compound 44, Hydrochloride Salt] | – | – | > 32 µg/mL | > 32 µg/mL | > 32 µg/mL | 8 to 32 µg/mL | > 32 µg/mL | – |
